# Laboratory results: ChEMBL document CHEMBL5303765, “Data for DCP probe BAY-7081” (2023)
# Columns and labels:
# [1] = target: 3',5'-cyclic-AMP phosphodiesterase 4B (Homo sapiens, UniProt Q07343); test: Panlabs assay PDE4B1; parameters: compound concentration 10 uM; conditions: at 10 µM
# [2] = target: Mu-type opioid receptor (Homo sapiens, UniProt P35372); test: GPCRScan assay: inhibition of MOR; parameters: radioligand conc. used [nm] 1.0 – 2.0, parental cells stable HEK
# [3] = target: Dual 3',5'-cyclic-AMP and -GMP phosphodiesterase 11A (Homo sapiens, UniProt Q9HCR9); test: Panlabs assay PDE11A4; parameters: compound concentration 10 uM; conditions: at 10 µM
# [4] = target: 3',5'-cyclic-AMP phosphodiesterase 4C (Homo sapiens) (UniProt Q08493); test: Panlabs assay PDE4C1; parameters: compound concentration 10 uM; conditions: at 10 µM
# [5] = target: T1, cGMP-dependent 3',5'-cyclic phosphodiesterase (Homo sapiens, UniProt O00408); test: Panlabs assay PDE2A; parameters: compound concentration 10 uM; conditions: at 10 µM
# [6] = target: T2, Alpha-2C adrenergic receptor (Homo sapiens) (UniProt P18825); test: Adrenergic alpha2C Eurofins Panlabs panel; conditions: Compound concentration 10.0 uM
# T2 sequence (whole entry): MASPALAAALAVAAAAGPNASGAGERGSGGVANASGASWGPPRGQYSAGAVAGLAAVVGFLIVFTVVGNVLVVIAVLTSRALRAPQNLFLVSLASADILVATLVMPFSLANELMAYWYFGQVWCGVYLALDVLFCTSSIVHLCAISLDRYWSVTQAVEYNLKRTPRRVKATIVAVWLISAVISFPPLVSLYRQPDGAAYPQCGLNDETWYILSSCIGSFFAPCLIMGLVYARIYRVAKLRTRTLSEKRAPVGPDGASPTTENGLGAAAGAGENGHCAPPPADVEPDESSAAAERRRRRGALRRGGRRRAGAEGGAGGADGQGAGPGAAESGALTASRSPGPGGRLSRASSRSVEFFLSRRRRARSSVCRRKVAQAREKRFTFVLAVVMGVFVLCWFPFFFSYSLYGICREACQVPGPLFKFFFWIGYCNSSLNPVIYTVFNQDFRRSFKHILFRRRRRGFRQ
# [7] = target: Histamine H2 receptor (Homo sapiens) (UniProt P25021); test: Histamine H2 Eurofins Panlabs panel; conditions: Compound concentration 10.0 uM
# [8] = target: T3, Muscarinic acetylcholine receptor M2 (Homo sapiens) (UniProt P08172); test: Muscarinic M2 Eurofins Panlabs panel; conditions: Compound concentration 10.0 uM
# T3 sequence (whole entry): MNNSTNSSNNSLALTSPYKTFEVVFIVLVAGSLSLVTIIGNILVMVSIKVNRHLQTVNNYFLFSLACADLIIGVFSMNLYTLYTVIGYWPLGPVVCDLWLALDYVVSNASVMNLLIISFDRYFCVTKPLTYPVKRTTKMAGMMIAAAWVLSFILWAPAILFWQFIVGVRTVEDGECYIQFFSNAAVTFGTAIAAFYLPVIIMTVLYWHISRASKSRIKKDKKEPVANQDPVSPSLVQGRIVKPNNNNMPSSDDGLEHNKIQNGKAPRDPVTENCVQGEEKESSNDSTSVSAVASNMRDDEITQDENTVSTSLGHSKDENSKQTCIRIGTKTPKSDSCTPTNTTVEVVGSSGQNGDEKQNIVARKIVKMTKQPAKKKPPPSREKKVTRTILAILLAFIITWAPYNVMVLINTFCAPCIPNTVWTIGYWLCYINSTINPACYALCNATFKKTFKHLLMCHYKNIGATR
# [9] = target: Progesterone receptor (Homo sapiens) (UniProt P06401); test: Progesterone PR-B Eurofins Panlabs panel; conditions: Compound concentration 10.0 uM
# [10] = target: Glucocorticoid receptor (Homo sapiens) (UniProt P04150); test: Glucocorticoid Eurofins Panlabs panel; conditions: Compound concentration 10.0 uM
# [11] = target: T4, D(4) dopamine receptor (Homo sapiens) (UniProt P21917); test: Dopamine D4.2 Eurofins Panlabs panel; conditions: Compound concentration 10.0 uM
# T4 sequence (whole entry): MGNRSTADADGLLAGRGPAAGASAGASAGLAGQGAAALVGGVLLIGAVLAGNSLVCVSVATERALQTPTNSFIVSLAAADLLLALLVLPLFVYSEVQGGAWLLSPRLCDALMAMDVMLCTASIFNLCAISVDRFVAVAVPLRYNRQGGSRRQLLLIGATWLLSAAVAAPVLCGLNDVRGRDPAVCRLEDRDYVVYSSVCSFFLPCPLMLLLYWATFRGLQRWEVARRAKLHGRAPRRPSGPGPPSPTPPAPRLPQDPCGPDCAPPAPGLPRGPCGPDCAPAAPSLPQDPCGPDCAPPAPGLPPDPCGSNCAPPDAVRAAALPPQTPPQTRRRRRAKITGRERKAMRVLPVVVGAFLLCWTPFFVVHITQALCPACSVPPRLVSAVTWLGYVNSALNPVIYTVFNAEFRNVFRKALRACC
# [12] = target: Leukotriene C4 synthase (Cavia porcellus) (UniProt A6XA80); test: Leukotriene LTC4 Synthase Eurofins Panlabs panel; conditions: Compound concentration 10.0 uM
# [13] = target: Prostaglandin G/H synthase 2 (Homo sapiens) (UniProt P35354); test: Cyclooxygenase COX-2 Eurofins Panlabs panel; conditions: Compound concentration 10.0 uM
# [14] = target: T1, cGMP-dependent 3',5'-cyclic phosphodiesterase; test: 3H-cAMP and 3H-cGMP Scintillation Proximity Assay (PDE2A)
# [15] = target: T5, Muscarinic acetylcholine receptor M1 (Homo sapiens) (UniProt P11229); test: Muscarinic M1 Eurofins Panlabs panel; conditions: Compound concentration 10.0 uM
# T5 sequence (whole entry): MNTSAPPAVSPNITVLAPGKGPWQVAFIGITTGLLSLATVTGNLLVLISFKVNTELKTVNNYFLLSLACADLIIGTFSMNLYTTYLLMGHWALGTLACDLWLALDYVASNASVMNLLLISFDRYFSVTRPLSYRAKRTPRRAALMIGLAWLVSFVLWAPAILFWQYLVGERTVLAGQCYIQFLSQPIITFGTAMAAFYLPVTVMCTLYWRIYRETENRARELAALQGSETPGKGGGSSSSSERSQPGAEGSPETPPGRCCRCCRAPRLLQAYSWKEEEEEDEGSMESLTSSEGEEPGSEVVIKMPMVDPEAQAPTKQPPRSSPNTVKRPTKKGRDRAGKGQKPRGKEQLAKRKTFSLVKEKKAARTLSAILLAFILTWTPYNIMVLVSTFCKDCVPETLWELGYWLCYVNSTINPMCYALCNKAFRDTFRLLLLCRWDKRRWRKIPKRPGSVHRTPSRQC
# [16] = target: Nitric oxide synthase 1 (Rattus norvegicus) (UniProt P29476); test: Nitric Oxide Synthase, Neuronal (nNOS) Eurofins Panlabs panel; conditions: Compound concentration 10.0 uM
# [17] = target: T6, Alpha-2B adrenergic receptor (Homo sapiens) (UniProt P18089); test: Adrenergic alpha2B Eurofins Panlabs panel; conditions: Compound concentration 10.0 uM
# T6 sequence (whole entry): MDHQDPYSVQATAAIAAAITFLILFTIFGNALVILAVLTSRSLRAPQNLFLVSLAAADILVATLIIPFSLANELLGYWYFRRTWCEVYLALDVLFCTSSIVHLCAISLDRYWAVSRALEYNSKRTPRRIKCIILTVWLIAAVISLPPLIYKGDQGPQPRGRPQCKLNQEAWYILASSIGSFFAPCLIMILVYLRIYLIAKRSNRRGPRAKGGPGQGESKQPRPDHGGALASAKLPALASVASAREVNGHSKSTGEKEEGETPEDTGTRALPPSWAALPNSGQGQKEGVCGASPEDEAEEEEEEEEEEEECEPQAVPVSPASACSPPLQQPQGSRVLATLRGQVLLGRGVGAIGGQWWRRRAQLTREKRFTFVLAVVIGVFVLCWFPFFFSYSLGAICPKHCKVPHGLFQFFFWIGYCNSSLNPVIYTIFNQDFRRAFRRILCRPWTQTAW
# Chain of Mu-type opioid receptor (P35372 whole entry): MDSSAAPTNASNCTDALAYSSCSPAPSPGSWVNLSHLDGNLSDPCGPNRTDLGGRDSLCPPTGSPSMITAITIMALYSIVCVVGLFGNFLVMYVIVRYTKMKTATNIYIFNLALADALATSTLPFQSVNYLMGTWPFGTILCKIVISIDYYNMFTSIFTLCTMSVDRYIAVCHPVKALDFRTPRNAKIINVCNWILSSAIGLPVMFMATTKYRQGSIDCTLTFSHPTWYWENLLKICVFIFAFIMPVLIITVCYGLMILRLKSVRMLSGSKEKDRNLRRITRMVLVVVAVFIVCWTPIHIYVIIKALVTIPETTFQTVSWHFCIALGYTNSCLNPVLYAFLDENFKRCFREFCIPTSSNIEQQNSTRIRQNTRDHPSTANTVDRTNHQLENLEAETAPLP
# T1 sequence (O00408 whole entry): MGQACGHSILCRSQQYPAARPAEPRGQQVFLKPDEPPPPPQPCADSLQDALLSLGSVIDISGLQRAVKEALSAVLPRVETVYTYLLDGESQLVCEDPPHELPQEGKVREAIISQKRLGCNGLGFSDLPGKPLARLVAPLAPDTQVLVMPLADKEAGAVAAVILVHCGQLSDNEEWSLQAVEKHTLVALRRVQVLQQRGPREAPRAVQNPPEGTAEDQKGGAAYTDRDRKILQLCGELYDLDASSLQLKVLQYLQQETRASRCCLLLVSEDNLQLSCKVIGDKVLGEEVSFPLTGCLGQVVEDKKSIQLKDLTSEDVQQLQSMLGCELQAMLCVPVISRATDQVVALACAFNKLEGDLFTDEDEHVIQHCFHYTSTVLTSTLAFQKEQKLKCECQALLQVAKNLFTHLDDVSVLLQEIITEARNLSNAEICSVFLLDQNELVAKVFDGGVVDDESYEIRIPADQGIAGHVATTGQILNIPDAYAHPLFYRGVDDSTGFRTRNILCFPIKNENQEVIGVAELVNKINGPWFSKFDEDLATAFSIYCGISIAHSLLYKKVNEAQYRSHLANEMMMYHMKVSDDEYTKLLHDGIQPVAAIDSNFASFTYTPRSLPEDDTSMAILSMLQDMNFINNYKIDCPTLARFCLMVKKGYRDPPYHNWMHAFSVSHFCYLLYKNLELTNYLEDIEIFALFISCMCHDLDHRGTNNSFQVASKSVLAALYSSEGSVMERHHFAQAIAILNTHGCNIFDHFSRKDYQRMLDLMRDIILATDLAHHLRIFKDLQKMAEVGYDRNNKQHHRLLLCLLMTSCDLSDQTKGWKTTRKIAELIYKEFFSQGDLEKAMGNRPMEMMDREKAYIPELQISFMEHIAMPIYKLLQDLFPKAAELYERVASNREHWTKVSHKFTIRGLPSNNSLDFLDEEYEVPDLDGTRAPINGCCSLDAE
# Chain of Dual 3',5'-cyclic-AMP and -GMP phosphodiesterase 11A (Q9HCR9 whole entry, looked up): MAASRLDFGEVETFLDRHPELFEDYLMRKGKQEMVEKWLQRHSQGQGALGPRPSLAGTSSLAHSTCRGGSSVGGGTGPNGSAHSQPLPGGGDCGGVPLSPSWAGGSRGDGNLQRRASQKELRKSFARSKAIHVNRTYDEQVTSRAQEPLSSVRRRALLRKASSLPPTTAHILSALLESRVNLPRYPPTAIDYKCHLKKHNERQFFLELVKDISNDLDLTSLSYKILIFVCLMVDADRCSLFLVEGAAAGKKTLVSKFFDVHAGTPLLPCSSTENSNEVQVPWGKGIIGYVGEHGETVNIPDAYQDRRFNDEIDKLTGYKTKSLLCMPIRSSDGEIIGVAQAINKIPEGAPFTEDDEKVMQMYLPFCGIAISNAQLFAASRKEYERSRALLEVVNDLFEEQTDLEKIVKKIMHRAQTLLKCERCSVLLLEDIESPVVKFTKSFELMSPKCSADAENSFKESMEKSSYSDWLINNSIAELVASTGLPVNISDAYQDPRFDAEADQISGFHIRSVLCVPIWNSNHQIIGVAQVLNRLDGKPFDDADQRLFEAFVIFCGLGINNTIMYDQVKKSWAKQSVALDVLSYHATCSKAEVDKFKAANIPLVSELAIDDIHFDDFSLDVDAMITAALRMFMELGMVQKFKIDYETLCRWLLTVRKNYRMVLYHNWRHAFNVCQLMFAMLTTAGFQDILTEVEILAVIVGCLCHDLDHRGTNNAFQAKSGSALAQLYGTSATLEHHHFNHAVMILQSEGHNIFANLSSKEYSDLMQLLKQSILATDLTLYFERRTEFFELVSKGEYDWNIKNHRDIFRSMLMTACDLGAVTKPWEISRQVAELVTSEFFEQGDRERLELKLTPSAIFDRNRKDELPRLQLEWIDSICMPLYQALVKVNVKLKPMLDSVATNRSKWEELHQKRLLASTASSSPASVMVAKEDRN
# Chain of Progesterone receptor (Homo sapiens) (P06401 whole entry): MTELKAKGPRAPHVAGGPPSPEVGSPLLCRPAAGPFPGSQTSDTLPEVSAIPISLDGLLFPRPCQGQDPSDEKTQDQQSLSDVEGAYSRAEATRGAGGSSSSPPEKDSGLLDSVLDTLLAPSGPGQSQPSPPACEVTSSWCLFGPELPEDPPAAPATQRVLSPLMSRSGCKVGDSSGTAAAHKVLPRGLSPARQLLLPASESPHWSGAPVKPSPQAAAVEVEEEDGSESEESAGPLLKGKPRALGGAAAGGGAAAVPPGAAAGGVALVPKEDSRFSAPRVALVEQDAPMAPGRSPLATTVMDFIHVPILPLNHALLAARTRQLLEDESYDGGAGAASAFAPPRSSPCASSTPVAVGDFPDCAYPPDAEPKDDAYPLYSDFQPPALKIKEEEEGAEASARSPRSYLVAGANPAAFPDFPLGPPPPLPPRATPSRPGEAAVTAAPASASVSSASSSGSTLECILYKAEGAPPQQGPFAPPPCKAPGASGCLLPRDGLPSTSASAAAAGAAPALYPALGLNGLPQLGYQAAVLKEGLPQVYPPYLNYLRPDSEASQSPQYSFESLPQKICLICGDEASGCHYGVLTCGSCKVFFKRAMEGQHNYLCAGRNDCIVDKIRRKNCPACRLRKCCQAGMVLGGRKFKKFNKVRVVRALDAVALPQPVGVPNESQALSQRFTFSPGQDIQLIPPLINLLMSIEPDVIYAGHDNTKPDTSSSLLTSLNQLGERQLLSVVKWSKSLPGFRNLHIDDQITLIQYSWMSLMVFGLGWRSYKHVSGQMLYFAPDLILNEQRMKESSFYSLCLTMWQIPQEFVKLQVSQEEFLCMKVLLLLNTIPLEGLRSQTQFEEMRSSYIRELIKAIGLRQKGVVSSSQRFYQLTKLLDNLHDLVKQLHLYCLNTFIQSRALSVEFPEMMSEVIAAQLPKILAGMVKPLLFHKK
# Chain of Histamine H2 receptor (Homo sapiens) (P25021 whole entry): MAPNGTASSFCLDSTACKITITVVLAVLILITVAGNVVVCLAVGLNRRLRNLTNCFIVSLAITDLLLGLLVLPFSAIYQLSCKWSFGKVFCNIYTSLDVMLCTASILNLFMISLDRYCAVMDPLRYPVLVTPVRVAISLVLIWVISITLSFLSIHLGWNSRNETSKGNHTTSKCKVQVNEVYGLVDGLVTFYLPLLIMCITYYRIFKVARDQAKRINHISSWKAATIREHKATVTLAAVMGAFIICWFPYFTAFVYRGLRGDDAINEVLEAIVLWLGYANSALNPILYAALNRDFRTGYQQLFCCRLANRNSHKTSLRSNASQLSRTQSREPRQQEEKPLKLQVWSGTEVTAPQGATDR
# Chain of Glucocorticoid receptor (Homo sapiens) (P04150 whole entry): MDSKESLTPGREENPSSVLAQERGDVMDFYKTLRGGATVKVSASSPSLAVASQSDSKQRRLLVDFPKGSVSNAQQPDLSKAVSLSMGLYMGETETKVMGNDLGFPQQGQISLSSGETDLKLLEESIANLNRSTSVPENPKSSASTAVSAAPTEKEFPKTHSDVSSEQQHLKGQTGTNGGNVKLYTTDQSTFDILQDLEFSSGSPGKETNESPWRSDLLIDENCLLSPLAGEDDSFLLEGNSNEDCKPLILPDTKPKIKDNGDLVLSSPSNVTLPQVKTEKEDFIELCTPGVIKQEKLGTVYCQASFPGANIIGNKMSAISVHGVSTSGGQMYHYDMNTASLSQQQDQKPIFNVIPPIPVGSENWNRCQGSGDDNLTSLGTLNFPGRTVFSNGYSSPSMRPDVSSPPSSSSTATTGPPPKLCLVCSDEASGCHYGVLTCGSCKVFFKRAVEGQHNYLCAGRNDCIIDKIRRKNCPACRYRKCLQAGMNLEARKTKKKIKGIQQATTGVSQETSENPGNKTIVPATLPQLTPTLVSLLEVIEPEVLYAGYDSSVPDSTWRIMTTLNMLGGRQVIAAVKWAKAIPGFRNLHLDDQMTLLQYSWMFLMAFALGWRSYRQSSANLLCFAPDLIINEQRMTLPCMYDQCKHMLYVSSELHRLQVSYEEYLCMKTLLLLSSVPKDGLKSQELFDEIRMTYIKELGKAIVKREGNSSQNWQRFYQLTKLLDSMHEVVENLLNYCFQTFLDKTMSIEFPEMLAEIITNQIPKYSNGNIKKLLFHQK
# Chain of Prostaglandin G/H synthase 2 (Homo sapiens) (P35354 whole entry): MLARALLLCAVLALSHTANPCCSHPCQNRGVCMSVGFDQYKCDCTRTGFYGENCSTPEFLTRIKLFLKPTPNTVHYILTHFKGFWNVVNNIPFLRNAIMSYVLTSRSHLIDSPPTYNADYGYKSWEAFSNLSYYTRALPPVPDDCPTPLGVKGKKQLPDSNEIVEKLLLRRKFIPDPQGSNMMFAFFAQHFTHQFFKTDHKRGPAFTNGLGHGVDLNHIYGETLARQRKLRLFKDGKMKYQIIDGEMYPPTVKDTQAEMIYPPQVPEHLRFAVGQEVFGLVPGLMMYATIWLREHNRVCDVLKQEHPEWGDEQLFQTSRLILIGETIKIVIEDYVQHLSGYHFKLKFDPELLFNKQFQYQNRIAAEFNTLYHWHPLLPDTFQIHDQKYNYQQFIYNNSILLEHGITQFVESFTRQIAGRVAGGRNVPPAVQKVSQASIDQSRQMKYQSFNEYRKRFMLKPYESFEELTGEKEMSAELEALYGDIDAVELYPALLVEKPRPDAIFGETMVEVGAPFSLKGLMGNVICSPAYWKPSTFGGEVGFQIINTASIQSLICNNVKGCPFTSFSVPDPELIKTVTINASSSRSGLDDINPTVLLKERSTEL
SMILES,inhibition [1] [%],Ki ([2]; read-out: Ki) [µM],Ki ([2]; read-out: pKi (converted)) [µM],inhibition [3] [%],inhibition [4] [%],inhibition [5] [%],inhibition [6] [%],inhibition [7] [%],inhibition [8] [%],inhibition [9] [%],inhibition [10] [%],inhibition [11] [%],inhibition [12] [%],inhibition [13] [%],IC50 [14],inhibition [15] [%],inhibition [16] [%],inhibition [17] [%]
CCC[C@@H]1CNCc2c1[nH]c(=O)c(C#N)c2N1CCC2(CC1)CC2,10.6,4.71,4.68,1.3,28.6,3.5,,,,,,,,,,,,
CCC[C@H]1CNCc2c1[nH]c(=O)c(C#N)c2N1CCC2(CC1)CC2,,,,,,,-1,3,6.67,2,4.67,2,16,-5,> 10 µM (not active),-4,-2,7
